Reference: patent publication US5705649A, “Protein staining compositions and methods” (Promega Corporation, priority 1995, dated 1998)
Each block holds one compound with its values, some of them ahead of it.

How the values were obtained:
[1] = Spectral analyses of Coomassie Blue R and Promega Green 1, 2, 3; type: physicochemical; settings: diluted 1:500 in 1:1 methanol:water
Protocol: The three solutions of Promega Green 1, 2, and 3, from examples 1, 2 and 3 respectively, were diluted approximately 500 fold into a 1:1 solution of methanol:water. The spectra of the resulting solutions and of a 12 μg/ml solution of Coomassie Blue R (in 1:1 methanol:water) were recorded from 700 to 340 nm versus 1:1 methanol:water. […] All of the derivatives gave essentially identical spectra; however, the maximal absorbance of the diluted Promega Green i was about twice that seen for the other derivatives. The derivatives had two peak absorptions in the region of the spectrum scanned, a major peak at around 630 nm and a second peak at around 440 nm. The following absorbances were recorded at the peaks near 630 nm for the three Promega Green dye solutions (diluted 1:500 in 1:1 methanol:water): […]

[2] = system: Promega Mid-Range Molecular Weight Markers; experiment: Detection of proteins during SDS-PAGE electrophoresis (dye in cathode buffer); settings: 10% SDS-PAGE, dye in cathode buffer, white plastic card behind gel
Source text: Solutions for the formation and electrophoresis of proteins were made according to the instructions given in Experiments in Gene Fusions, Silhavy, Berman, Enquist, Cold Spring Harbor Laboratory Press, Cold Spring Harbor, N.Y. with the following changes:
a) The SDS concentration in the upper and lower gel buffer components were reduced to result in a 0.05% final SDS concentration in the gel. Thus, the composition of 4× upper gel buffer was 0.5M Tris-HCl, pH 6.8, 0.2 % (w/v) sodium dodecylsulfate (SDS) and the composition of 4× lower gel buffer was 1.5M Tris-HCl, pHS.8, 0.2 % (w/v) SDS.
b) The SDS concentration in the electrophoretic (electrode) buffer was reduced to 0.04% final concentration. Thus, 4× electrode (anode or cathode) buffer was made by dissolving 60 g Tris base, 288 g glycine, and 8 g SDS dissolved in water and then diluting with water to 5 liters. Another name sometimes used for "electrode" buffer is "running" buffer.
c) The SDS concentration in the 2× sample buffer was reduced to 1% final SDS concentration. Thus, 2× sample buffer was made by mixing 0.5 ml of betamercaptoethanol, 0.25 ml of 0.1% (w/v) bromophenol blue, 1 ml of 10 % (w/v) SDS, 3 ml of water, and 5.3 ml of 2× glycerol buffer. 2× glycerol buffer is made by mixing 12.5 ml of 4× upper gel buffer and 20 ml of glycerol and diluting the resulting solution to 60 ml with water. Another name sometimes used for "sample" buffer is "loading" buffer.
d) Electrophoresis was performed using a BIO-RAD miniprotein II electrophoresis apparatus and gels were poured such that i cm of space was present between the bottom of the loading wells and the separating gel.
In other electrophoresis experiments reported in this application, the buffers used were as described above in this example. In some cases, as in this example, where preparation of a solution of dye in 150 ml of cathode (or electrode) buffer is specified, an amount of stock solution of a dye was first added to 150 ml of cathode buffer and then 125 ml of the resulting solution was used to fill the cathode buffer chamber (which holds 125 ml) in the electrophoresis apparatus. In other cases, where addition of stock solution of dye to the cathode buffer is specified without reference to the volume of cathode buffer or with reference to such volume being "125 ml," the stock solution was added directly to 125 ml of cathode buffer already in the cathode buffer chamber.
The samples used were prepared with Promega Mid-Range Molecular Weight Markers solution (Promega Corp., Madison, Wis., USA, Catalog No. V5231) (referred to hereinafter as "Promega Mid-Range [Molecular Weight] Markers or Standards") diluted into Sample Buffer. […]

[3] = system: Promega Mid-Range Molecular Weight Markers; experiment: Enhancement of staining of proteins in SDS-PAGE gels in 5% acetic acid; settings: 5% acetic acid
Protocol: The gels described above were placed in 5% acetic acid following the termination of the electrophoretic separation. Within one to two minutes the gel developed a light green background but the protein bands dramatically darkened to a green color. […] Again, the color of the background darkened to a greater degree when greater concentrations of dye were used.
The gels above (from Example 7) were placed in 5% acetic acid following termination of the electrophoretic separation. Within 1-2 minutes, all the gels turned light green and the color of the stained bands intensified such that all proteins were visible--even in the lane containing 0.25 μg protein/band.
The gels above (Example 9) were placed in 5% acetic acid following termination of the electrophoretic separation. Within 1-2 minutes, all the gels turned light green and the color of the stained bands intensified such that all proteins were visible--even in the lanes containing 0.25 μg protein/band.

[4] = system: Promega Mid Range Molecular Weight Standards; experiment: Detection of denatured protein with dodecylamino and octylamino derivatives of fluorescein isothiocyanate
Protocol: A fifteen well, 12% gel was made as described in example 5 and was loaded with diluted Promega Mid Range Molecular Weight Standards to produce lanes containing samples having 200, 100, 80, 60, 40, 20 and 10 ng of protein per band. The gel was run as described in example 5 except that Promega Green 1 was not added to the cathode buffer. After electrophoresis, the gel was cut between lanes to produce gel segments containing fractionated protein samples at each of the concentrations listed above and these were placed in 30% methanol for 25-30 min at room temperature. The stock stain solutions of Example 33 were then diluted into distilled water at a concentration of 0.5% (v/v), and 50 ml of these solutions were used to stain the gels. After 1 hr incubation, the gels were visualized and photographed using a transilluminator. […] The gels were then placed in 5% methanol and allowed to destain overnight.
Gels were made and loaded as described in Example 34. The gels were incubated in 30% methanol for 15 min to fix the protein and then were incubated in 50 ml of a solution of the stains of Example 38 made by dilution of the stock stain solutions described in Example 38 to a concentration of 0.5% (v/v) in distilled water. After incubation in the staining solution for 1 hr, the gels were placed in 5% methanol and were visualized and photographed after 30 min by placement of the gel segment on a transilluminator. Photography of the segments was performed as described in Example 27. At this point, protein bands were visualized in the gel stained with the dodecylamino derivative at a concentration as low as 80 ng of protein per band.
The gel segments were then returned to the destaining solutions and allowed to incubate overnight. The segment of the gel stained with the octylamino derivative was transferred to a solution of 30% methanol following the overnight incubation and was revisualized and rephotographed after 1 hr of incubation in this methanol solution. At this point, protein was detected at fluorescently labeled bands to a concentration as low as 40 ng of protein per band.

[5] = 0.5% (v/v) stain 1 hr, 5% methanol 30 min

Absorbance at the peak near 630 nm [1]: 1.37
SMILES: CCOc1ccc(N(C(C)=O)c2ccc(C(=C3C=CC(=[N+](CC)Cc4cccc(S(=O)(=O)[O-])c4)C=C3)c3ccc(N(CC)Cc4cccc(S(=O)(=O)O)c4)cc3)cc2)cc1 [Promega Green 2]
lowest protein amount per band visible while the gel was running [2]: 1.0 µg
lowest protein amount per band visible after enhancement ([3]; 1-2 minutes): 0.25 µg
staining after overnight incubation ([3]; overnight): slightly faded

SMILES: CCCCCCCCNC(=S)Nc1ccc(-c2c3ccc(=O)cc-3oc3cc(O)ccc23)c(C(=O)O)c1 [octylamino derivative]
background / visualization of bands [4, 5]: high background fluorescence which prevented visualization of the protein bands
lowest protein per band detected ([4]; after overnight destaining, then 30% methanol 1 hr): 40 ng

SMILES: CCCCCCCCCCCCNC(=S)Nc1ccc(-c2c3ccc(=O)cc-3oc3cc(O)ccc23)c(C(=O)O)c1 [dodecylamino derivative]
lowest protein per band visualized [4, 5]: 80 ng
